Nine compounds from US7427625B2, “Substituted thiatriazaacenaphthylene-6-carbonitrile kinase inhibitors” (Janssen Pharmaceutica, N.V., priority 2006, dated 2008) can be followed below.

Usually IC50 stands for the point on the concentration scale where inhibition reaches its midpoint. Low values mean higher potency, high ones lower potency. As a reminder, the inhibition is the drop in the measured response relative to a control, in per cent.

One assay deals with T1, HER-2 (Homo sapiens, UniProt P04626).
T1 construct: the nucleotides encoding amino acids 679 to 1255 of HER-2; purchased Proqinase (Freiburg, Germany)
T1 sequence (P04626 679-1255): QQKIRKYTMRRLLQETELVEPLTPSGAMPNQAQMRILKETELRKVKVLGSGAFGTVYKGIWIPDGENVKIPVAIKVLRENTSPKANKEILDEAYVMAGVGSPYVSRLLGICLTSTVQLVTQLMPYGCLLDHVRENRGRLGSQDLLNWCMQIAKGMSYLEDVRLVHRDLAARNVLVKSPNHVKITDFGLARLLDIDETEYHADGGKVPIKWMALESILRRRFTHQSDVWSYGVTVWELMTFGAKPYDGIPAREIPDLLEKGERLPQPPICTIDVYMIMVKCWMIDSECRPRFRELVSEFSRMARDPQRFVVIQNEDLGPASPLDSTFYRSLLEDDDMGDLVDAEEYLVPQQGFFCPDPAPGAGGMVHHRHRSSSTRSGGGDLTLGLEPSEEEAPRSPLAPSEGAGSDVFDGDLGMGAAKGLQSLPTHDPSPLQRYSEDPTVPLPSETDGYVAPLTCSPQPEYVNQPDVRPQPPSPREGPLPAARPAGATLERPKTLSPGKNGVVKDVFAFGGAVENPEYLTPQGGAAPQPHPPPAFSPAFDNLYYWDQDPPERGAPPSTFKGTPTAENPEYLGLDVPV
In words: HER-2 Kinase Assay. Format: biochemical. As to conditions: for inhibition at 1 µM: test concentration of 1 μM, read-out: HER-2 percent inhibition. On the procedure: HER-2 kinase was purified at Proqinase (Freiburg, Germany) from a construct that consisted of a fusion of GST (Glutathione-S-Transferase), HIS6-Thrombin and the nucleotides encoding amino acids 679 to 1255 of HER-2.
A mixture of a 10× kinase reaction buffer (600 mM Hepes at pH 7.5, 30 mM Magnesium Chloride, 0.03 mM Sodium Vanadate and 500 μg/mL PEG 20,000), DTT (1.2 mM final from a 10 mM stock), ATP (1 μM from a 10 mM stock), biotinylated polyGluTyr (1.5 ng/μL final from stock of 1 μg/μL prepared by Upstate Biotechnologies, Lake Placid, N.Y.), Manganese Chloride (3 mM final from a 1 M stock), γ-^33P-ATP (10 μCi/μL stock) and water (70 μL/well) was added to each well of a Streptavidin Flashplate (Cat. #SMP103, NEN, Boston, Mass.).
Test compound stock (1 μL) was added to the appropriate wells. Diluted GSTHER2 kinase (6.7 ng/μL diluted into 50 mM Tris-HCl at pH 8.0 and 0.1% bovine serum albumin) (30 μL) was added (total volume of 200 ng/well) to initiate the reactions.
The reaction plates were incubated at 30° C. for 1 hr. The reaction was terminated by aspiring the reaction mixture from the plate wells and washing the wells three times with a 1×PBS stop buffer (300 μL) and 100 mM EDTA. After the final wash, the same stop buffer (200 μL) was again added to the wells. The plates were then sealed and read on the TopCount scintillation counter.
(§1) The IC50 was derived according to the procedure described in Example 2. For those compounds without an IC50, the percent inhibition results are shown at a test concentration of 1 μM.

The next assay addresses T2, VEGF-R2 (Rattus norvegicus, UniProt O08775).
T2 construct: polyhistidine (N)
In words: VEGF-R2 Screening Assay. Format: biochemical. As to conditions: for inhibition at 1 µM: test concentration of 1 μM, read-out: VEGF-R2 percent inhibition. On the procedure: (§2) A kinase reaction mixture was prepared containing 50 mM Tris-HCl at pH 8, 10 mM, MgCl20.1 mM […], 1 mM DTT, 10 μM ATP, 0.025 μM biotinylated histone-H1 peptide substrate and 0.2 μCuries per well ^33P-γ-ATP (2000-3000 Ci/mmol). 70 μL of the kinase reaction mixture was dispensed into the well of a Streptavidin FlashPlate.
(§3) Test compound stock in 100% DMSO (1 μL) was added to the wells resulting in a final concentration of 1% DMSO in the reaction with a 100 μL final reaction volume. Each enzyme was diluted in 50 mM Tris-HCl pH=8.0, 0.1% BSA and 30 μL was added to each well to initiate the reaction. The reaction was incubated for one hour at 30° C. At the end of the 1 hr incubation, the reaction was terminated by aspirating the mixture from the plate and washing the wells twice with PBS containing 100 mM EDTA. The biotinylated peptide substrate became immobilized on the Flashplate^198 and the incorporation of ^33P-γ-ATP was measured by reading the plate on a scintillation counter. Inhibition of the enzymatic activity was measured by observing a reduced amount of ^33P-γ-ATP incorporated into the immobilized peptide.
The VEGF-R2 enzyme is a fusion protein containing a polyhistidine tag at the N terminus followed by amino acids 786 to 1343 of the rat VEGF-R2 kinase domain (Accession number U93306). The assay used 150 ng of the N-terminal biotinylated peptide biotin-KHKKLAEGSAYEEV-amide (VEGF-R2) per well.
as §1

Another assay deals with T3, Aurora-A (Mus musculus, UniProt P97477).
T3 construct: followed by the full length protein encoding the murine Aurora-A; polyhistidine (N); made in house; host or cells: sf9 insect cells
T3 sequence (P97477 1-395): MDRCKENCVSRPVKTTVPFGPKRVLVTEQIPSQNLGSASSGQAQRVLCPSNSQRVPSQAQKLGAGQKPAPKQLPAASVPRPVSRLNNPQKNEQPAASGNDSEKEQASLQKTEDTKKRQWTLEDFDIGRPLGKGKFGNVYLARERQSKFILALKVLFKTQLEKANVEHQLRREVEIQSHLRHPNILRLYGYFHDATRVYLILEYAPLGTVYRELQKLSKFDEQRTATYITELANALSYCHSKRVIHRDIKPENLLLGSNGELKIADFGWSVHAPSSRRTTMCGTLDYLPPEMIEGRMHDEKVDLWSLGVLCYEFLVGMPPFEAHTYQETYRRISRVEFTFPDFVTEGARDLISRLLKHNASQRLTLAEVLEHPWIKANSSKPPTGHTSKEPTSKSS
In words: Aurora-A Screening Assay. The class given is biochemical, murine. As to conditions: for inhibition at 1 µM: test concentration of 1 μM, read-out: Aurora-A percent inhibition. On the procedure:
as §2, §3
Aurora-A is a fusion protein containing a polyhistidine tag at the N terminus followed by the full length protein encoding the murine Aurora-A (Accession number GB BC014711) expressed and purified from sf9 insect cells. The assay used 400 ng of the N-terminal biotinylated peptide biotin-GRTGRRNSI-amide (Aurora-A) per well.
as §1

In another assay the target is T4, EGFR (Homo sapiens, UniProt P00533).
T4 construct: The intracellular portion of EGFR started at nucleotide 2189 (corresponding to amino acid 667) and ended at the termination codon; made in house; host or cells: Sf9 insect cells (baculovirus)
T4 sequence (P00533 669-1210 limits assumed): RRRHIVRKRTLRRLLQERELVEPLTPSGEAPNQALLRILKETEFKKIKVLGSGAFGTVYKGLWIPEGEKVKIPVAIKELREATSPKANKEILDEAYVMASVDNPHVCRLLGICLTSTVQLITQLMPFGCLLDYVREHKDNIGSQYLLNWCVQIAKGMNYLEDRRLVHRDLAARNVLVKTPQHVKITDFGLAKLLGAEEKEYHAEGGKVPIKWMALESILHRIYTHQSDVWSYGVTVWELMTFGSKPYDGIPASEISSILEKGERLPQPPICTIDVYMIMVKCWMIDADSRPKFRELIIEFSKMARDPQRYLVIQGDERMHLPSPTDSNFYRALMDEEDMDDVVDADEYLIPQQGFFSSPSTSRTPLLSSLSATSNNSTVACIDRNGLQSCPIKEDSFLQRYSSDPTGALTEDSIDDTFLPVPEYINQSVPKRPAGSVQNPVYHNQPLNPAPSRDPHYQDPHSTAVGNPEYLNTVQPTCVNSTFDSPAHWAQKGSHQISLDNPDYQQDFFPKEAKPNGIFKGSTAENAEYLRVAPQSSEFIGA
In words: EGFR Kinase Assay. The class given is biochemical. The conditions noted are these: for inhibition at 2 µM: test concentration of 2 μM, read-out: EGFR percent inhibition. From the text: The EGFR kinase used was a fusion of Glutathione-S-Transferase (GST) and a PCR amplified intracellular portion of EGFR (NM_005228). The intracellular portion of EGFR started at nucleotide 2189 (corresponding to amino acid 667) and ended at the termination codon. The portion was PCR amplified with primers that added the lambda attB sequences to each end, recombined into an entry vector, then into a GST destination vector (as described in Gateway Technologies Manual by Invitrogen Corporation, Carlsbad, Calif.).
The destination vector was recombined in the DH10BAC strain of bacteria to produce a bacmid. The bacmid was transfected into Sf 9 cells and the supernatant containing the baculovirus was collected. The GSTEGFR protein was purified using large cultures of Sf 9 cells infected with stock virus. After an appropriate period of time, the cells were collected and lysed. The GSTEGFR was then purified from the lysate on Glutathione-Sepharose columns (as described by Amersham Biosciences, Buckinghamshire, United Kingdom).
The EGFR substrate was prepared by biotinylating polyGluTyr (128 mg) (Sigma, St. Louis, Mo.) in a 1×PBS buffer incubated together with a 12-fold molar excess of Sulfo-NHS-LC-Biotin on ice for at least 2 hrs. The free biotin was separated from the biotinylated polyGluTyr on a gel filtration column.
A mixture of a 10× kinase buffer (500 mM Tris at pH 8.0, 100 mM Magnesium Chloride and 1 mM Sodium Vanadate), DTT (1 mM final from 500 mM stock), ATP (5 μM final from 10 mM stock), biotinylated polyGluTyr (10 μg/μL stock), γ-^33P ATP (10 μCi/μL stock) and water was added to each well (90 μL/well) of a Streptavidin Flashplate (Perkin Elmer, Wellesley, Mass.).
Test compound in 100% DMSO (2 μL) was added to the appropriate wells. Diluted GSTEGFR (1:300 dilution in 50 mM Tris at pH 8.0 and 0.1% bovine serum albumin) (10 μL) was added to the wells to initiate the reactions.
The plates were incubated at 30° C. for 1 hr with shaking. The reacted contents were removed and the plates were sequentially washed three times with a 1×PBS stop buffer (300 μL without Magnesium and Calcium) and 100 mM EDTA. After the final wash, the same stop buffer (200 μL) was added to the wells. The plates were then sealed and read on the TopCount scintillation counter.
Test compounds were assayed in triplicate at 16 concentrations at half-log dilutions starting at 200 uM. A maximum and minimum signal for the assay was determined on each plate. The percent inhibition of a test compound was calculated according to the formula
For a series of test concentrations, the IC50 was derived by graphing percent inhibition against the log of the concentrations tested for a given compound. For those compounds without an IC50, the percent inhibition results are shown at a test concentration of 2 μM.

T2 sequence (O08775 786-1343): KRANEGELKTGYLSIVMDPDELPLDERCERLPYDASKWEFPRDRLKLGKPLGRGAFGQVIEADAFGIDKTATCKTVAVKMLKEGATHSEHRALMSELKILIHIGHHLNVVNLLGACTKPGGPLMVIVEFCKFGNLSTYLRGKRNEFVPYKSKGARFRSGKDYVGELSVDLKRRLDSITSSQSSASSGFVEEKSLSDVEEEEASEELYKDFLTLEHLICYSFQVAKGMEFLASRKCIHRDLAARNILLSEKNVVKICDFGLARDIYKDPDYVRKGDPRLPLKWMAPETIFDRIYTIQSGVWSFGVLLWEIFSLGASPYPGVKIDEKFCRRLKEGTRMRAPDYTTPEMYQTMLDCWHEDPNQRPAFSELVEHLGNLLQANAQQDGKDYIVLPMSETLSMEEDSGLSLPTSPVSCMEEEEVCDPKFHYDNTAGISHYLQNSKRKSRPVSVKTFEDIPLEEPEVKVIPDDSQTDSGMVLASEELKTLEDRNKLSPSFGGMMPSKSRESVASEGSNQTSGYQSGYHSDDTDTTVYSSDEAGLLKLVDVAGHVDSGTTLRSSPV

Consider `CCOC(=O)c1sc2nc(Cl)c(C#N)c3c2c1NC(=O)N3c1ccc(Oc2ccccc2)cc1` [Cpd 53, 7-chloro-6-cyano-4-oxo-5-(4-phenoxy-phenyl)-4,5-dihydro-3H-1-thia-3,5,8-triaza-acenaphthylene-2-carboxylic acid ethyl ester], for which the IC50 against HER-2, on VEGF-R2 and against Aurora-A was above 100000 nM each time. The inhibition at 2 µM at EGFR stood at 2%.
On to `N#Cc1cnc2sc(C(=O)Nc3ccc(CN4CCOCC4)cc3)c3c2c1N(c1ccc(Oc2ccccc2)cc1)C(=O)N3` [Cpd 50, 6-cyano-4-oxo-5-(4-phenoxy-phenyl)-4,5-dihydro-3H-1-thia-3,5,8-triaza-acenaphthylene-2-carboxylic acid (4-morpholin-4-ylmethyl-phenyl)-amide], for which the 50% inhibitory concentration (IC50) is 2200 nM at HER-2, above 10000 nM on VEGF-R2, above 100000 nM at Aurora-A and 124 nM on EGFR.
With `Cn1ccc(NC(=O)c2sc3ncc(C#N)c4c3c2NC(=O)N4c2c(Cl)ccc3c2OCO3)n1` [Cpd 39, 5-(5-chloro-benzo[1,3]dioxol-4-yl)-6-cyano-4-oxo-4,5-dihydro-3H-1-thia-3,5,8-triaza-acenaphthylene-2-carboxylic acid (1-methyl-1H-pyrazol-3-yl)-amide], the inhibition at 1 µM is 0% on HER-2, 9% at VEGF-R2 and 15% on Aurora-A. Moreover, the inhibition at 2 µM at EGFR was determined as 26%.
Regarding `N#Cc1cnc2sc(C(=O)Nc3cccnc3)c3c2c1N(c1c(Cl)ccc2c1OCO2)C(=O)N3` [Cpd 36, 5-(5-chloro-benzo[1,3]dioxol-4-yl)-6-cyano-4-oxo-4,5-dihydro-3H-1-thia-3,5,8-triaza-acenaphthylene-2-carboxylic acid pyridin-3-ylamide], the inhibition at 1 µM came to 29% on HER-2, 15% on VEGF-R2 and 21% on Aurora-A. The inhibition at 2 µM on EGFR turned out to be 35%.
For `N#Cc1cnc2sc(C(=O)Nc3ccc(CN4CCC(F)CC4)cc3)c3c2c1N(c1c(Cl)ccc2c1OCO2)C(=O)N3` [Cpd 26, 5-(5-chloro-benzo[1,3]dioxol-4-yl)-6-cyano-4-oxo-4,5-dihydro-3H-1-thia-3,5,8-triaza-acenaphthylene-2-carboxylic acid [4-(4-fluoro-piperidin-1-ylmethyl)-phenyl]-amide], the values for the IC50 against HER-2 and at EGFR were above 1000 nM and 2020 nM, respectively. Besides, the inhibition at 1 µM at VEGF-R2 is 11%; on Aurora-A it was 23%.
As for `COc1cc(NC(=O)c2sc3ncc(C#N)c4c3c2NC(=O)N4c2c(Cl)ccc3c2OCO3)ccc1OCCN1CCCCC1` [Cpd 31, 5-(5-chloro-benzo[1,3]dioxol-4-yl)-6-cyano-4-oxo-4,5-dihydro-3H-1-thia-3,5,8-triaza-acenaphthylene-2-carboxylic acid [3-methoxy-4-(2-piperidin-1-yl-ethoxy)-phenyl]-amide], the results for the inhibition at 1 µM on HER-2, at VEGF-R2 and on Aurora-A were 35%, 17% and 22%, respectively. The same compound displayed a concentration for half-maximal inhibition (IC50) on EGFR of 513 nM.
As to `C[C@@H]1CN(Cc2ccc(NC(=O)c3sc4ncc(C#N)c5c4c3NC(=O)N5c3c(Cl)ccc4c3OCO4)cc2)C[C@H](C)O1` [Cpd 25, 5-(5-chloro-benzo[1,3]dioxol-4-yl)-6-cyano-4-oxo-4,5-dihydro-3H-1-thia-3,5,8-triaza-acenaphthylene-2-carboxylic acid [4-(2,6-cis-dimethyl-morpholin-4-ylmethyl)-phenyl]-amide], the inhibition at 1 µM at HER-2 was found to be 3%; on VEGF-R2, 0%; at Aurora-A, 18%. The inhibition at 2 µM on EGFR amounted to 24%.
Turning to `N#Cc1cnc2sc(C(=O)N3CCC(O)CC3)c3c2c1N(c1c(Cl)ccc2c1OCO2)C(=O)N3` [Cpd 28, 5-(5-chloro-benzo[1,3]dioxol-4-yl)-2-(4-hydroxy-piperidine-1-carbonyl)-4-oxo-4,5-dihydro-3H-1-thia-3,5,8-triaza-acenaphthylene-6-carbonitrile], the results for the inhibition at 1 µM on HER-2, on VEGF-R2 and on Aurora-A were 35%, 15% and 25%, respectively. For the same compound, the inhibition at 2 µM on EGFR was 9%.
Turning to `CC(C)(CO)NC(=O)c1sc2ncc(C#N)c3c2c1NC(=O)N3c1c(Cl)ccc2c1OCO2` [Cpd 38, 5-(5-chloro-benzo[1,3]dioxol-4-yl)-6-cyano-4-oxo-4,5-dihydro-3H-1-thia-3,5,8-triaza-acenaphthylene-2-carboxylic acid (2-hydroxy-1,1-dimethyl-ethyl)-amide], the values for the inhibition at 1 µM on HER-2, at VEGF-R2 and at Aurora-A were 0%, 2% and 4%, respectively. The inhibition at 2 µM at EGFR was determined as 13%.
